In US9120812B2, “Pyrimidooxazocine derivatives as mTOR-inhibitors” (SANOFI, priority 2012, dated 2015):
Read-outs that look alike come from different tables or passages of the source.

What was measured:
[1] = target: mTOR (human recombinant aa mTOR 1360-2549) (Homo sapiens (Human), UniProt P42345); test: mTOR enzymatic test by TR-FRET (phosphorylation of GFP-4EBP1); format: biochemical
How it was run: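 TR-FRET detection of GFP-4EBP1 phosphorylation by a terbium-labelled anti-phospho-Thr46 antibody. Kinase reaction ran 30 min at room temperature, was quenched with EDTA (10 mM final) plus Tb-antibody (2 nM final) and left 60 min. Emission at 520 and 490 nm after 340 nm excitation, reported as the 520/490 ratio.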

U87MG tumour cells = test: Test of in vitro proliferation of U87MG tumour cells; format: cell-based; conditions: U87MG cells, 72 hours, read-out: U87 Cell Proliferation IC50
Protocol: Model 4: Test of in vitro Proliferation of U87MG Tumour Cells.
The cell growth is determined with the reagent CellTiter 96 AQueous One Solution Cell Proliferation Assay from Promega (Cat. No. G3581).

PI3Kα (p110α/p85α) = PI3Kα (p110α/p85α) (Homo sapiens (Human), UniProt P42336); test: PI3Kα enzymatic test by measuring the consumption of ATP; format: biochemical
PI3Kα (p110α/p85α), sequence (P42336 whole entry): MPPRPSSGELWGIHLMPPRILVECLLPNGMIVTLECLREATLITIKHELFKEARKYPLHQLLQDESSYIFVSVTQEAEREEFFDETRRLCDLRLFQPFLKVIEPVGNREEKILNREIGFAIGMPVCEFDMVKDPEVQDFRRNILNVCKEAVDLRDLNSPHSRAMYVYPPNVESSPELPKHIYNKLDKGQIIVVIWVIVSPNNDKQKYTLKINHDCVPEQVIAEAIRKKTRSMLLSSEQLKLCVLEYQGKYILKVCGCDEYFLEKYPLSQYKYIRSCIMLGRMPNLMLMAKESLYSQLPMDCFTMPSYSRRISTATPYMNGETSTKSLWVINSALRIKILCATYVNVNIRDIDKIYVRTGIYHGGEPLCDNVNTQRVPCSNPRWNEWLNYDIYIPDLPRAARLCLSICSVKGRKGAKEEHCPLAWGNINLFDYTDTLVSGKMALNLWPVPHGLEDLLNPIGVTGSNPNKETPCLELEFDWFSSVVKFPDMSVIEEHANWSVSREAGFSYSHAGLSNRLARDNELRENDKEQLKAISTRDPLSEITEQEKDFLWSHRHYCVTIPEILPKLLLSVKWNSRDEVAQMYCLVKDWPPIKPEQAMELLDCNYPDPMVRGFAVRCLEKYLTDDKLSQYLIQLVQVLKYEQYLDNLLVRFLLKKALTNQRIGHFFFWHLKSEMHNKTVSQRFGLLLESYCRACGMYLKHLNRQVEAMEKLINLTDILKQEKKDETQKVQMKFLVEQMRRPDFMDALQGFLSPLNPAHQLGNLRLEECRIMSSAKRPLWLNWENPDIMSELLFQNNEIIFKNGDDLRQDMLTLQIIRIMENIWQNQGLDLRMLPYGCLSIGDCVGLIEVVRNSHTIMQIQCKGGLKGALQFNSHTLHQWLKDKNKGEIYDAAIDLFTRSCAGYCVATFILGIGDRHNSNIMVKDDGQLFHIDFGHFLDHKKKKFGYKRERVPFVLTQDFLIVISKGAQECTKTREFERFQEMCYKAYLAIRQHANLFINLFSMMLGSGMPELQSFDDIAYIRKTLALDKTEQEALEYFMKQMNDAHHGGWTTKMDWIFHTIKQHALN
PI3Kα (p110α/p85α), sequence (P27986 whole entry partner): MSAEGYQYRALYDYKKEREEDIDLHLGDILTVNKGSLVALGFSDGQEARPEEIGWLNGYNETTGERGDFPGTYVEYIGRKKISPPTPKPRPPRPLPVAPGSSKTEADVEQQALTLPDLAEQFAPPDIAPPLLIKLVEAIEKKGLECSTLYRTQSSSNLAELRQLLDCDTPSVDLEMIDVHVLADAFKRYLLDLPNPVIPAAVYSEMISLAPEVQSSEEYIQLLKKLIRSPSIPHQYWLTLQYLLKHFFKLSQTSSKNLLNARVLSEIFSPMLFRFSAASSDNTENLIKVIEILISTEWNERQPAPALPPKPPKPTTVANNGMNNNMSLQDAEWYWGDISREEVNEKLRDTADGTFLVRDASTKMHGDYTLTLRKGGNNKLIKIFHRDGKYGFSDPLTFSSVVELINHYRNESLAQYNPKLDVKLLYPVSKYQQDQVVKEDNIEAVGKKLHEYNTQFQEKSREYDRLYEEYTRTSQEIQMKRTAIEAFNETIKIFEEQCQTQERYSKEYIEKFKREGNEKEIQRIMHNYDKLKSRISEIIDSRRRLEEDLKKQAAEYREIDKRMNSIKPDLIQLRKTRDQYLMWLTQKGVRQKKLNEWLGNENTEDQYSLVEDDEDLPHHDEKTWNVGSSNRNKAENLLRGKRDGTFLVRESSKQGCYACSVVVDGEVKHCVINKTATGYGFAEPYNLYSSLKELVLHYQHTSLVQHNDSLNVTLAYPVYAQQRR
How it was run: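 p110α/p85α (1.7 μg/ml) with 50 μM PIP2 and 2 μM ATP in pH 7.5 Tris buffer with EGTA, MgCl2, Chaps, DTT; reaction 90 min. Remaining ATP measured by luciferin/luciferase luminescence; IC50 from threefold serial dilutions spanning at least 10 000-fold.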

[2] = Homo sapiens, U-87 MG, read-out: U87 Akt-pS473 % Inhibition or IC50, nM (IC50), U87MG cells

mTOR (human recombinant aa mTOR 1360-2549), sequence (P42345 1360-2549): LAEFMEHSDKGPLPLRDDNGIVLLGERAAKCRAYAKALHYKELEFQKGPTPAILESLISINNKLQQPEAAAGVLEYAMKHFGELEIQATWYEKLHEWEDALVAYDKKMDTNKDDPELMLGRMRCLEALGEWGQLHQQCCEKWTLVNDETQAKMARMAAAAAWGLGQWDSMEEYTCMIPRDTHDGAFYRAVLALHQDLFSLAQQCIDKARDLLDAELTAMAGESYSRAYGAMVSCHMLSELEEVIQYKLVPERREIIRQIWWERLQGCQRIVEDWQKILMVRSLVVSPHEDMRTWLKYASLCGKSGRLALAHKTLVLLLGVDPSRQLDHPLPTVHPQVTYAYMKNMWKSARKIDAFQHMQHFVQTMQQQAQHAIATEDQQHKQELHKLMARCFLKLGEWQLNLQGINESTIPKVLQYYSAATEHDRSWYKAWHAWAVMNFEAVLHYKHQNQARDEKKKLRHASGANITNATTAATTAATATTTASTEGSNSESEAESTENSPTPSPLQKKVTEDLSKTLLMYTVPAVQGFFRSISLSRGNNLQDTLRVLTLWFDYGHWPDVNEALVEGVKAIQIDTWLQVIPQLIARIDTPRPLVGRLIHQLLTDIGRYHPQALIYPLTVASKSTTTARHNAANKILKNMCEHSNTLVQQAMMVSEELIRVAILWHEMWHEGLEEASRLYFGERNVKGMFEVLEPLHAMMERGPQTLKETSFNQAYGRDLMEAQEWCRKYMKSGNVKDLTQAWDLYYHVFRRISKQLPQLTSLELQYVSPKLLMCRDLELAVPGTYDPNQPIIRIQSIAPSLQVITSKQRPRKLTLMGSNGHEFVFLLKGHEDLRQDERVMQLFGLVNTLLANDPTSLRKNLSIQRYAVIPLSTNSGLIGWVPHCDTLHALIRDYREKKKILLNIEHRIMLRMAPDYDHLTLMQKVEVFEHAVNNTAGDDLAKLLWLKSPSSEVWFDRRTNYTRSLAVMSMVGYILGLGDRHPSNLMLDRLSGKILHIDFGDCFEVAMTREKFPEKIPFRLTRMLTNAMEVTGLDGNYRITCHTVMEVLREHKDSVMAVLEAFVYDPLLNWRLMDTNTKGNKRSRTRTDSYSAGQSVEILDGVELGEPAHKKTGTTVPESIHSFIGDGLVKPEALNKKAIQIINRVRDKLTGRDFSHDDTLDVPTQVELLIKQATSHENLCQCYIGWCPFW

Row | Compound | IC50 [1] [nM] | IC50 (Akt-pS473 in U87MG cells; [2]) [nM] | IC50 (U87MG tumour cells; Homo sapiens, U-87 MG, 72 h) [nM] | PI3Ka IC50 (PI3Kα (p110α/p85α)) [µM] | IC50 (Akt-pS473 in U87MG cells; read-out: U87 Akt-pS473 % Inhibition or IC50, nM (IC50), U87MG cells) [nM] | IC50 (U87MG tumour cells) [nM]
1 | CCN1CC(C)(C)Oc2nc(N3CC4CCC(C3)O4)nc(-c3ccc(NC(=O)Nc4cccnc4)c(F)c3)c2C1=O [Example 223, 1-{4-[6-Ethyl-8,8-dimethyl-2-(8-oxa-3-azabicyclo[3.2.1]oct-3-yl)-5-oxo-5,6,7,8-tetrahydro-9-oxa-1,3,6-triazabenzocyclohepten-4-yl]-2-fluorophenyl}-3-pyridin-3-ylurea] | 20 | 4 | 61 | 2.07 | – | –
2 | CNC(=O)Nc1ccc(-c2nc(N3CCOC[C@@H]3C)nc3c2C(=O)N(CCOC)CC(C)(C)O3)cc1F [Example 225, 1-{2-Fluoro-4-[6-(2-methoxyethyl)-8,8-dimethyl-2-((S)-3-methylmorpholin-4-yl)-5-oxo-5,6,7,8-tetrahydro-9-oxa-1,3,6-triazabenzocyclohepten-4-yl]phenyl}-3-methylurea] | 36 | 91 | 365 | 1.36 | – | –
3 | CCN1CC(C)(C)Oc2nc(N3CCOC[C@@H]3C)nc(-c3ccc(NC(=O)Nc4ccc(N5CCOCC5)cc4)c(F)c3)c2C1=O [Example 227, 1-{4-[6-Ethyl-8,8-dimethyl-2-((S)-3-methylmorpholin-4-yl)-5-oxo-5,6,7,8-tetrahydro-9-oxa-1,3,6-triazabenzocyclohepten-4-yl]-2-fluorophenyl}-3-(4-morpholin-4-ylphenyl)urea] | 76 | 7 | 29 | 0.484 | – | –
4 | CC[C@H]1COCCN1c1nc2c(c(-c3ccc(NC(=O)NC)c(F)c3)n1)C(=O)N(CC)CC(C)(C)O2 [Example 228, 1-{4-[6-Ethyl-2-((S)-3-ethylmorpholin-4-yl)-8,8-dimethyl-5-oxo-5,6,7,8-tetrahydro-9-oxa-1,3,6-triazabenzocyclohepten-4-yl]-2-fluorophenyl}-3-methylurea] | 70 | 72 | 229 | 6.6 | – | –
5 | CCN1CC(C)(C)Oc2nc(N3C4CCC3COC4)nc(-c3ccc(NC(=O)Nc4ccc(C)nc4)c(F)c3)c2C1=O [Example 229, 1-{4-[6-Ethyl-8,8-dimethyl-2-(3-oxa-8-azabicyclo[3.2.1]oct-8-yl)-5-oxo-5,6,7,8-tetrahydro-9-oxa-1,3,6-triazabenzocyclohepten-4-yl]-2-fluorophenyl}-3-(6-methylpyridin-3-yl)urea] | 43 | 19 | 86 | >10 | – | –
6 | CCN1CC(C)(C)Oc2nc(N3CC4CCC(C3)O4)nc(-c3ccc(NC(=O)Nc4ccc(C(F)(F)F)nc4)c(F)c3)c2C1=O [Example 230, 1-{4-[6-Ethyl-8,8-dimethyl-2-(8-oxa-3-azabicyclo[3.2.1]oct-3-yl)-5-oxo-5,6,7,8-tetrahydro-9-oxa-1,3,6-triazabenzocyclohepten-4-yl]-2-fluorophenyl}-3-(6-trifluoromethylpyridin-3-yl)urea] | 77 | 18 | 58 | >10 | – | –
7 | CCN1CC(C)(C)Oc2nc(N3CCOC[C@@H]3C)nc(-c3ccc(NC(=O)Nc4ccncc4)c(F)c3)c2C1=O [Example 231, 1-{4-[6-Ethyl-8,8-dimethyl-2-((S)-3-methylmorpholin-4-yl)-5-oxo-5,6,7,8-tetrahydro-9-oxa-1,3,6-triazabenzocyclohepten-4-yl]-2-fluorophenyl}-3-pyridin-4-ylurea] | 16 | 12 | 29 | 0.103 | – | –
8 | CCN1CC(C)(C)Oc2nc(N3CCOC[C@@H]3C)nc(-c3ccc(NC(=O)Nc4cnc(N5CCOCC5)cn4)cc3)c2C1=O [Example 232, 1-{4-[6-Ethyl-8,8-dimethyl-2-((S)-3-methylmorpholin-4-yl)-5-oxo-5,6,7,8-tetrahydro-9-oxa-1,3,6-triazabenzocyclohepten-4-yl]phenyl}-3-(5-morpholin-4-ylpyrazin-2-yl)urea] | 32 | 26 | 95 | 5.63 | – | –
9 | CCN1CC(C)(C)Oc2nc(N3CC4CCC(C3)O4)nc(-c3ccc(NC(=O)Nc4cnc(N5CCOCC5)cn4)c(F)c3)c2C1=O [Example 233, 1-{4-[6-Ethyl-8,8-dimethyl-2-(8-oxa-3-azabicyclo[3.2.1]oct-3-yl)-5-oxo-5,6,7,8-tetrahydro-9-oxa-1,3,6-triazabenzocyclohepten-4-yl]-2-fluorophenyl}-3-(5-morpholin-4-ylpyrazin-2-yl)urea] | 68 | 87 | 908 | >10 | – | –
10 | CCN1CC(C)(C)Oc2nc(N3CC4CCC(C3)O4)nc(-c3ccc(NC(=O)Nc4cnc(N(C)C)cn4)c(F)c3)c2C1=O [Example 234, 1-(5-Dimethylaminopyrazin-2-yl)-3-{4-[6-ethyl-8,8-dimethyl-2-(8-oxa-3-azabicyclo[3.2.1]oct-3-yl)-5-oxo-5,6,7,8-tetrahydro-9-oxa-1,3,6-triazabenzocyclohepten-4-yl]-2-fluorophenyl}urea] | 67 | 118 | 2290 | >10 | – | –
11 | CCN1CC(C)(C)Oc2nc(N3CC4CCC(C3)O4)nc(-c3ccc(NC(=O)Nc4ccc(N5CCN(S(C)(=O)=O)CC5)cc4)c(F)c3)c2C1=O [Example 235, 1-{4-[6-Ethyl-8,8-dimethyl-2-(8-oxa-3-azabicyclo[3.2.1]oct-3-yl)-5-oxo-5,6,7,8-tetrahydro-9-oxa-1,3,6-triazabenzocyclohepten-4-yl]-2-fluorophenyl}-3-[4-(4-methanesulfonylpiperazin-1-yl)phenyl]urea] | 89 | 10 | 29 | >7.2 | – | –
12 | CCN1CC(C)(C)Oc2nc(N3CC4CCC(C3)O4)nc(-c3ccc(NC(=O)Nc4ccc(N5CCN(C(=O)OC)CC5)cc4)c(F)c3)c2C1=O [Example 236, 4-[4-(3-{4-[6-Ethyl-8,8-dimethyl-2-(8-oxa-3-azabicyclo[3.2.1]oct-3-yl)-5-oxo-5,6,7,8-tetrahydro-9-oxa-1,3,6-triazabenzocyclohepten-4-yl]-2-fluorophenyl}ureido)phenyl]piperazine-1-carboxylic acid methyl ester] | 112 | 20 | 29 | >7.2 | – | –
13 | CCN1CC(C)(C)Oc2nc(N3CC4CCC(C3)O4)nc(-c3ccc(NC(=O)Nc4ccc(N5CCS(=O)(=O)CC5)cc4)c(F)c3)c2C1=O [Example 237, 1-[4-(1,1-Dioxo-1λ6-thiomorpholin-4-yl)phenyl]-3-{4-[6-ethyl-8,8-dimethyl-2-(8-oxa-3-azabicyclo[3.2.1]oct-3-yl)-5-oxo-5,6,7,8-tetrahydro-9-oxa-1,3,6-triazabenzocyclohepten-4-yl]-2-fluorophenyl}urea] | 39 | 80 | 49 | >7.2 | – | –
14 | C[C@@H](CO)OC(=O)Nc1ccc(-c2nc(N3CC4CCC(C3)O4)nc3c2C(=O)N(C)CC(C)(C)O3)cc1 [Example 238, {4-[6,8,8-Trimethyl-2-(8-oxa-3-azabicyclo[3.2.1]oct-3-yl)-5-oxo-5,6,7,8-tetrahydro-9-oxa-1,3,6-triazabenzocyclohepten-4-yl]phenyl}carbamic acid (S)-2-hydroxy-1-methylethyl ester] | 678 | > 1000 | 1700 | >10 | – | –
15 | CCN1CC(C)(C)Oc2nc(N3CC4CCC(C3)O4)nc(-c3ccc(NC(=O)Nc4ccc(OC)nc4)c(F)c3)c2C1=O [Example 240, 1-{4-[6-Ethyl-8,8-dimethyl-2-(8-oxa-3-azabicyclo[3.2.1]oct-3-yl)-5-oxo-5,6,7,8-tetrahydro-9-oxa-1,3,6-triazabenzocyclohepten-4-yl]-2-fluorophenyl}-3-(6-methoxypyridin-3-yl)urea] | 61 | – | – | >10 | 29 | 75
16 | CCN1CC(C)(C)Oc2nc(N3C4CCC3COC4)nc(-c3ccc(NC(=O)Nc4cc(C)nc(C)c4)c(F)c3)c2C1=O [Example 241, 1-(2,6-Dimethylpyridin-4-yl)-3-{4-[6-ethyl-8,8-dimethyl-2-(3-oxa-8-azabicyclo[3.2.1]oct-8-yl)-5-oxo-5,6,7,8-tetrahydro-9-oxa-1,3,6-triazabenzocyclohepten-4-yl]-2-fluorophenyl}urea] | 165 | 43 | 59 | >10 | – | –
17 | CCN1CC(C)(C)Oc2nc(N3CCOC[C@@H]3C)nc(-c3ccc(NC(=O)Nc4cc(OC)ccn4)cc3F)c2C1=O [Example 242, 1-{4-[6-Ethyl-8,8-dimethyl-2-((S)-3-methylmorpholin-4-yl)-5-oxo-5,6,7,8-tetrahydro-9-oxa-1,3,6-triazabenzocyclohepten-4-yl]-3-fluorophenyl}-3-(4-methoxypyridin-2-yl)urea] | 89 | 770 | 2300 | >10 | – | –
